The values below come from ChEMBL document CHEMBL1287810, “Diamino-1,2,4-triazole derivatives are selective inhibitors of TYK2 and JAK1 over JAK2 and JAK3” (Bioorg Med Chem Lett, 2010).

Where only a bound is given, the exact number is not on record here.

Experiment [1] has as its target Tyrosine-protein kinase JAK2 (Homo sapiens, UniProt O60674).
The target of experiment [2] is T1, Tyrosine-protein kinase JAK3 (Homo sapiens, UniProt P52333).
T1 sequence (P52333 whole entry): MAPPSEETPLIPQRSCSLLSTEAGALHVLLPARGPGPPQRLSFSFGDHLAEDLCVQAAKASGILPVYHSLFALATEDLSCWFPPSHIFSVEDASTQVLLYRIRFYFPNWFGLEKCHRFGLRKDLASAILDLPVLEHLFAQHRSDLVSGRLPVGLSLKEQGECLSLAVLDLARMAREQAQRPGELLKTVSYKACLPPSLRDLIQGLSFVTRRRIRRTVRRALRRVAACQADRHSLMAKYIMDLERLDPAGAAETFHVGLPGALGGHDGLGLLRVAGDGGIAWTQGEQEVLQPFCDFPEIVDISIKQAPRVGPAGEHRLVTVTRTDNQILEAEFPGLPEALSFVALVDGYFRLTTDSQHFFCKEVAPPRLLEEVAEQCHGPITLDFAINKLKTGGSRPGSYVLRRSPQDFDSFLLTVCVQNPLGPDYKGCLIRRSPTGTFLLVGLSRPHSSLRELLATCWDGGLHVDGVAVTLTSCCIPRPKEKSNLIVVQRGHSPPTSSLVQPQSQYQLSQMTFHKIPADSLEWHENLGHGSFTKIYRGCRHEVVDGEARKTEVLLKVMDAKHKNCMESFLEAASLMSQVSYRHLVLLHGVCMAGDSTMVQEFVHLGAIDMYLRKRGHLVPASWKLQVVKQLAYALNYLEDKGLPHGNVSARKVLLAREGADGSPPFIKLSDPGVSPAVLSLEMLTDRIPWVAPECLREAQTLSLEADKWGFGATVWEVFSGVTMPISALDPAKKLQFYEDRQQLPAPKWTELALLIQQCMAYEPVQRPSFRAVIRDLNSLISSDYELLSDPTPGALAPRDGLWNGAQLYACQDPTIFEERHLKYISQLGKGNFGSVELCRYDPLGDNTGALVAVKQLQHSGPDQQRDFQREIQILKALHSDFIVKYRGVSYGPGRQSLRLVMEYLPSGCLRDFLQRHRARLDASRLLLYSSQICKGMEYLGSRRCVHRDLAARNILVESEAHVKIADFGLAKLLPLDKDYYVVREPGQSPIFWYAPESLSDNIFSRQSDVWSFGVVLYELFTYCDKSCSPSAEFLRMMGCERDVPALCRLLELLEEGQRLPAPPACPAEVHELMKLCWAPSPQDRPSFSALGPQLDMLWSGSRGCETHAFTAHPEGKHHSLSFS

Experiment [3] deals with Non-receptor tyrosine-protein kinase TYK2 (Homo sapiens, UniProt P29597).
The target in experiment [4] is Tyrosine-protein kinase JAK1 (Homo sapiens, UniProt P23458).
Chain of Tyrosine-protein kinase JAK1 (P23458 whole entry): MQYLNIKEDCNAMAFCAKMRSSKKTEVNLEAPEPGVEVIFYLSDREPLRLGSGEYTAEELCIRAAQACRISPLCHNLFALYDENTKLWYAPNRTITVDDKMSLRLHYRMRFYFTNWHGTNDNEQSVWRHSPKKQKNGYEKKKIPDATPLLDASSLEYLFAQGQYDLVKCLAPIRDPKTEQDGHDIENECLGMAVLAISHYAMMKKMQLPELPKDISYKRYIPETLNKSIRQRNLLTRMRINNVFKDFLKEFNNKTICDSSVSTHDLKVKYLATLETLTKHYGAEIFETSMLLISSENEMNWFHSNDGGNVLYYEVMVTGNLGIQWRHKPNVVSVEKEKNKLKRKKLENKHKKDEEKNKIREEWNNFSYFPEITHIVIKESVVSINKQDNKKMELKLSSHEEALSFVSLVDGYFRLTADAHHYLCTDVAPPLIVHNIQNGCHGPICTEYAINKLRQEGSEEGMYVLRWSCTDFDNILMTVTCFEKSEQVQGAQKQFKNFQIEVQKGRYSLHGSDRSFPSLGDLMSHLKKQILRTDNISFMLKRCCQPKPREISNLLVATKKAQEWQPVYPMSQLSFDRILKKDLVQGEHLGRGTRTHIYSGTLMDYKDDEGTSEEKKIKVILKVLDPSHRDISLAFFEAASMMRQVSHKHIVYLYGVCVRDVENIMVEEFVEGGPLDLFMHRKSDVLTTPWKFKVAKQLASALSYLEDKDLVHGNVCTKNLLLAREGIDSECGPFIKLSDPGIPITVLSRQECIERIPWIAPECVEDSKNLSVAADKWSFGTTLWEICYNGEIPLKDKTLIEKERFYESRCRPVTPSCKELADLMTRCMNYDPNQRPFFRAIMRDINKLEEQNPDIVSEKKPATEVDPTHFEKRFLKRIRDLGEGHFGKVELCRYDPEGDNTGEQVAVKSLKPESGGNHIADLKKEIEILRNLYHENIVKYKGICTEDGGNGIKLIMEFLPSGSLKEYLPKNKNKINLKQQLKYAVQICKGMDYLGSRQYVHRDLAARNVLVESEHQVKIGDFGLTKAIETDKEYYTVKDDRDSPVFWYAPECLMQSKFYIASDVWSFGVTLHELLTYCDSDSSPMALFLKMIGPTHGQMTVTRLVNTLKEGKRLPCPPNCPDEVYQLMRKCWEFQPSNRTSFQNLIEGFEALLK

Chain of Tyrosine-protein kinase JAK2 (O60674 whole entry): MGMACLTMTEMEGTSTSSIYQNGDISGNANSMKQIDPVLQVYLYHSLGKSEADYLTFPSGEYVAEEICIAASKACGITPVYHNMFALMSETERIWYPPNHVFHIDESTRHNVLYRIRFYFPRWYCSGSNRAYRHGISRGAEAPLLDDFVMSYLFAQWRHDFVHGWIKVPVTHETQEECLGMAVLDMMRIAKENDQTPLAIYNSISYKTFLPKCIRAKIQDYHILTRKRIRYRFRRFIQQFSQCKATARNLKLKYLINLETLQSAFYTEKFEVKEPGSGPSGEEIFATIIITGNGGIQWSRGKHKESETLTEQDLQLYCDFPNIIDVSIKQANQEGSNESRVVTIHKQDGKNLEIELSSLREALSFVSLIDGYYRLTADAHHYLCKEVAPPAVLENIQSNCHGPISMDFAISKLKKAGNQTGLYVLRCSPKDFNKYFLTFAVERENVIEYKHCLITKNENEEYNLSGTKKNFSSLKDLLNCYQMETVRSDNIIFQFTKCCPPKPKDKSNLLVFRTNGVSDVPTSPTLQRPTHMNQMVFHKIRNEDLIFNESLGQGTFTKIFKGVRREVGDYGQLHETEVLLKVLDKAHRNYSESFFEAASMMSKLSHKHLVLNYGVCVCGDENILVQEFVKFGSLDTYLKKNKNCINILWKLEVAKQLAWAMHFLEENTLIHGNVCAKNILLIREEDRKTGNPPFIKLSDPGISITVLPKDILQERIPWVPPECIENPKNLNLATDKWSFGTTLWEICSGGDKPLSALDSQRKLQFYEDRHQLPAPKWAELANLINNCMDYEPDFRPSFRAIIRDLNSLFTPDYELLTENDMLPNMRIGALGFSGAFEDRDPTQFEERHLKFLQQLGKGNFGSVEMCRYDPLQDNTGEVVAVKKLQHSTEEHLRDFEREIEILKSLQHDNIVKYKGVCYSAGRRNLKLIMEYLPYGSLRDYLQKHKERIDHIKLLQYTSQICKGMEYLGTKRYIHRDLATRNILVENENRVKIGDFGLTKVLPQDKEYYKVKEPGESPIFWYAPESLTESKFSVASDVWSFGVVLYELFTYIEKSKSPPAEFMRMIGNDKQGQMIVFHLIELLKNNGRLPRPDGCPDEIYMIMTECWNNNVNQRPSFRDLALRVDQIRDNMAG
Chain of Non-receptor tyrosine-protein kinase TYK2 (P29597 whole entry): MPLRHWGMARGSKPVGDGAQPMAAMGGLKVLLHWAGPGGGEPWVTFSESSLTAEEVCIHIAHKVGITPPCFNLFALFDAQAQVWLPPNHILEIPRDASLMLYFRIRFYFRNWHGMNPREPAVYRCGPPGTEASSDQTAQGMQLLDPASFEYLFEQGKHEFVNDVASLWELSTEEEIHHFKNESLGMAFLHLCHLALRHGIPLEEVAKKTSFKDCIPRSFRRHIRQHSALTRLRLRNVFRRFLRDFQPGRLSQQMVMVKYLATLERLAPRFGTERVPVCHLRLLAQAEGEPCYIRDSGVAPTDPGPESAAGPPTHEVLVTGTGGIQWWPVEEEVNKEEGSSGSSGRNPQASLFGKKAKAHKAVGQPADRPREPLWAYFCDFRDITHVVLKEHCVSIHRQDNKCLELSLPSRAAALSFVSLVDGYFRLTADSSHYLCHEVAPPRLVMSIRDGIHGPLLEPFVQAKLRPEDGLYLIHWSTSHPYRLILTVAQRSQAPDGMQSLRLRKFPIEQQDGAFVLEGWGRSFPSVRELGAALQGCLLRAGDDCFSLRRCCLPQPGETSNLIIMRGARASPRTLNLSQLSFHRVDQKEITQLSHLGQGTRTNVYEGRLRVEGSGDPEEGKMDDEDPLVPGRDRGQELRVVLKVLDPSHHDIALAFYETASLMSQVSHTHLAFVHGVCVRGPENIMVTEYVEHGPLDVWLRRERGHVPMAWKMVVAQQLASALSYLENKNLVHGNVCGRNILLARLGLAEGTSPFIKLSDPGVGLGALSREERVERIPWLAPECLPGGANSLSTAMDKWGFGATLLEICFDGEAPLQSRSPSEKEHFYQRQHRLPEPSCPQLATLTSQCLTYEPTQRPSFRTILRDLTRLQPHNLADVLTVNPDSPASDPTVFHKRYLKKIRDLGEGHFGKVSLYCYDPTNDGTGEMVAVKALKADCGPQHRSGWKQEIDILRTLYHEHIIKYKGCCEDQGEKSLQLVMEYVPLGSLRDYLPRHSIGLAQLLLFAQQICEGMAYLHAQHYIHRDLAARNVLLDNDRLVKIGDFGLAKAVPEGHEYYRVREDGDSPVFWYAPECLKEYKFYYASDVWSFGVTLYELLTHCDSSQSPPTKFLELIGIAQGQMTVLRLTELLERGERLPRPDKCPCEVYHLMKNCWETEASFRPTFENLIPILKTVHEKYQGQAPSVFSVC

On to `CCOC(=O)c1cccc(Nc2nc(N)n(C(=O)c3c(F)cccc3F)n2)c1`, for which the IC50 was more than 10000 nM in experiment [1], more than 10000 nM in experiment [2], 1720 nM in experiment [3] and 990 nM in experiment [4].

`Nc1nc(Nc2cccc(S(N)(=O)=O)c2)nn1C(=O)c1c(F)cccc1F`: the IC50 came out at 2500 nM in experiment [1], 1250 nM in experiment [2], 70 nM in experiment [3] and 19 nM in experiment [4].

As to `Nc1nc(Nc2cccc(C(=O)O)c2)nn1C(=O)c1c(F)cccc1F`, the IC50 is more than 10000 nM in experiment [1], more than 10000 nM in experiment [2], 690 nM in experiment [3] and 610 nM in experiment [4].

On to `COC(=O)c1ccc(Nc2nc(N)n(C(=O)c3c(F)cccc3F)n2)cc1`, for which the IC50 in experiment [1] is more than 10000 nM; in experiment [2] it was more than 10000 nM; in experiment [3], 760 nM; in experiment [4] it was 500 nM.

On to `Nc1nc(Nc2ccc(C(=O)O)cc2)nn1C(=O)c1c(F)cccc1F`, for which the IC50 in experiment [1] amounted to 2110 nM; in experiment [2] it was 1470 nM; in experiment [3], 42 nM; in experiment [4] it was 45 nM.

`CCOC(=O)c1cccc(Nc2nc(N)nn2C(=O)c2c(F)cccc2F)c1` registered an IC50 in experiment [3] of more than 10000 nM.

For `Nc1nc(Nc2ccccc2)nn1C(=O)c1c(F)cccc1F`, the IC50 in experiment [1] is not below 10000 nM; in experiment [2], 3250 nM; in experiment [3], 360 nM; in experiment [4] it was 230 nM.

As to `CN(C)c1cccc(Nc2nc(N)n(C(=O)c3c(F)cccc3F)n2)c1`, the IC50 in experiment [1] was 5000 nM; in experiment [2], 2000 nM; in experiment [3] it was 70 nM; in experiment [4], 39 nM.

Turning to `CN(C)c1ccc(Nc2nc(N)n(C(=O)c3c(F)cccc3F)n2)cc1`, the IC50 in experiment [1] is 2500 nM; in experiment [2], 850 nM; in experiment [3], 70 nM; in experiment [4] it was 80 nM.

As to `Nc1nc(Nc2cccnc2)nn1C(=O)c1c(F)cccc1F`, the IC50 in experiment [1] was more than 10000 nM; in experiment [2], 5000 nM; in experiment [3], 300 nM; in experiment [4] it was 160 nM.

For the compound `CCOC(=O)c1cccc(Nc2nc(N)n(C(=O)c3ccccc3)n2)c1`, in experiment [3], the IC50 is more than 10000 nM.

Consider `CCOC(=O)c1cccc(Nc2nc(N)n(C(=O)c3ccccc3F)n2)c1`, for which the IC50 was more than 10000 nM in experiment [1], more than 10000 nM in experiment [2], 6040 nM in experiment [3] and not below 10000 nM in experiment [4].

In experiment [3], `CCOC(=O)c1cccc(Nc2nc(N)n(C(=O)c3ccc(C(F)(F)F)cc3)n2)c1` had an IC50 of more than 10000 nM.

On to `CCOC(=O)c1cccc(Nc2nc(N)n(C(=O)c3ccc(N(C)C)cc3)n2)c1`, for which, in experiment [3], the IC50 is more than 10000 nM.

`CCOC(=O)c1cccc(Nc2nc(N)n(C(=O)c3ccco3)n2)c1` displayed an IC50 in experiment [3] of more than 10000 nM.

Turning to `CCOC(=O)c1cccc(Nc2nnc(N)[nH]2)c1`, the IC50 in experiment [3] was more than 10000 nM.

The IC50 is the concentration that gives 50% inhibition. A higher IC50 goes with lower potency.
